Measured values reported in patent EP0937711A1, “Thiobenzamides, process for their preparation and medicaments containing them” (Roche Diagnostics GmbH, priority 1998, dated 1999).

Legend:
Citratplasma = assay: Activated partial thromboplastin time (APTT) in citrate plasma; assay type: biochemical; details: time as difference to control (control ca. 28-35 s); for APTT 1000: 1000 µM in final volume, stopped after 5 min (>300)
Experimental: (§1) Neun Teile frisches Blut gesunder Spender werden mit einem Teil Natriumcitratlösung (0.11 Mol/l) gemischt und bei ca. 3000 U/min 10 Minuten bei Raumtemperatur zentrifugiert. Das Plasma wird abpipettiert und kann bei Raumtemperatur ca. 8 h aufbewahrt werden.
100 µl Citratplasma und 100 µl APTT-Reagenz (Diagnostica Stago / Boehringer Mannheim GmbH; enthält Lyophilisat Cephalin mit mikrokristallinem Kieselguraktivator) werden zusammen mit 10 µl Dimethylsulfoxid (DMSO) oder 10 µl einer Lösung der Wirksubstanz in DMSO in einem Kugelkoagulometer (KC10 der Fa. Amelung) 3 Minuten bei 37°C inkubiert. Mit Zugabe von 100 µl 0.025 M Calciumchlorid-Lösung wird eine Stoppuhr gestartet und der Zeitpunkt bis zum Eintritt der Gerinnung bestimmt. Die APTT beträgt bei den Kontrollmessungen ca. 28 -35 Sekunden und wird durch Wirksubstanzen verlängert. Sofern bei den Messungen nach 5 Minuten keine Gerinnung eintrat, wurde der Versuch gestoppt (>300).
In Tabelle 1 sind die gemessenen APTT-Zeiten in Sekunden als Differenz zur Kontrolle angegeben. Die Konzentrationen der Wirksubstanzen betrugen im Endvolumen 1000 µM (APTT 1000), 100 µM (APTT 100), 10 µM (APTT 10), 1 µM (APTT 1).

[1] = biological target: T1, bovines pankreatisches Trypsin (Bos taurus, UniProt P00760); assay: Inhibition constants (Ki), chromogenic substrate S-2238, trypsin; assay type: biochemical, bovin; details: pH 7.5, 25°C, 0.1 M phosphate buffer
T1 construct: purchased Sigma; host or cells: bovine pancreas
T1 sequence (P00760 24-246): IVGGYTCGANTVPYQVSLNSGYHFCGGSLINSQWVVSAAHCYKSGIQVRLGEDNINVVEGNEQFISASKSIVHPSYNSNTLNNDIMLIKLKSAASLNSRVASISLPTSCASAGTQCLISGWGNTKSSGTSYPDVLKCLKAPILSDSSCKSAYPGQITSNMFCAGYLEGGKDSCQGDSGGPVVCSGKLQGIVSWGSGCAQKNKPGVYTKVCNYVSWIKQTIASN
Experimental: (§2) Die kinetischen Messungen wurden in 0.2 M Kochsalz und 0.5 % Polyethylenglycol 6000 enthaltendem 0.1 M Phosphatpuffer (Herstellung siehe unten) bei pH 7.5 und 25°C in Polystyrol-Halbmikroküvetten in einem Gesamtvolumen von 1 mi durchgeführt. Die Reaktionen wurden durch Zugabe von Enzym zu vorinkubierten Lösungen, die entweder Dimethylsulfoxid (Kontrolle) oder Lösungen der Testsubstanz in DMSO (Inhibitor-Stocklösungen: 10 mM in DMSO) enthielten, gestartet. Die Zunahme der Extinktion bei 405 nm als Folge der Freisetzung von 4-Nitroanilin aus dem Substrat wurde photometrisch über einen Zeitraum von 12 Minuten verfolgt. Im Abstand von 20 Sekunden wurden Meßwerte (Extinktion vs. Zeit) ermittelt und diese Daten per Computer gespeichert.
(§3) Zur Bestimmung der Inhibitionskonstanten Ki wurde wie folgt vorgegangen: Die Geschwindigkeiten V0 (Extinktionsänderung pro Sekunde; Messungen ohne Inhibitor) und Vi (Extinktionsänderung pro Sekunde; Messungen mit Inhibitor) wurden durch lineare Regression bestimmt, wobei nur die Meßpunkte berücksichtigt wurden, bei der sich die Substratkonzentration um weniger als 15% verringerte. Aus einer Meßreihe (konstante Inhibitorkonzentration, variable Substratkonzentrationen) bestimmte man KM und VMAX durch nichtlinearen Fit auf die Gleichung V =(Vmax * [S])/([S] + KM) [formula] […]

Pferdethrombin = assay: Thrombin time in citrate plasma; assay type: biochemical, Pferd; details: 500 µM in final volume; time as difference to control (control ca. 24 s)
Experimental: as §1
200 µl Citratplasma werden in einem Kugelkoagulometer (KC10 der Fa. Amelung) 2 Minuten bei 37°C inkubiert. Zu 190 µl vortemperiertem Thrombin-Reagenz (Boehringer Mannheim GmbH; enthält ca. 3 U/ml Pferdethrombin und 0.0125 M Ca^++ gibt man 10 µl Dimethylsulfoxid (DMSO) oder eine Lösung der Wirksubstanz in DMSO. Mit Zugabe dieser 200 µl Lösung zum Plasma wird eine Stoppuhr gestartet und der Zeitpunkt bis zum Eintritt der Gerinnung bestimmt. Die Thrombinzeit beträgt bei den Kontrollmessungen ca. 24 Sekunden und wird durch Wirksubstanzen verlängert. Sofern bei den Messungen nach 5 Minuten keine Gerinnung eintrat, wurde der Versuch gestoppt (>300).
In Tabelle 1 sind die gemessenen Thrombinzeiten in Sekunden als Differenz zur Kontrolle angegeben. Die Konzentrationen der Wirksubstanzen betrugen im Endvolumen 500 µM (TT 500).

Humanes α-Thrombin = biological target: T2, Humanes α-Thrombin (Homo sapiens, UniProt P00734); assay: Inhibition constants (Ki), chromogenic substrate S-2238, thrombin; assay type: biochemical; details: pH 7.5, 25°C, 0.1 M phosphate buffer
T2 construct: Humanes α-Thrombin; purchased Sigma
Experimental: as §2, §3

humanem Faktor Xa = biological target: T3, humanem Faktor Xa (Homo sapiens, UniProt P00742); assay: Inhibition constants (Ki), chromogenic substrate Chromozym X, FXa; assay type: biochemical; details: pH 7.5, 25°C, 0.1 M phosphate buffer
T3 construct: humanem Faktor Xa; purchased Boehringer Mannheim GmbH
T3 sequence (P00742 235-488 limits assumed): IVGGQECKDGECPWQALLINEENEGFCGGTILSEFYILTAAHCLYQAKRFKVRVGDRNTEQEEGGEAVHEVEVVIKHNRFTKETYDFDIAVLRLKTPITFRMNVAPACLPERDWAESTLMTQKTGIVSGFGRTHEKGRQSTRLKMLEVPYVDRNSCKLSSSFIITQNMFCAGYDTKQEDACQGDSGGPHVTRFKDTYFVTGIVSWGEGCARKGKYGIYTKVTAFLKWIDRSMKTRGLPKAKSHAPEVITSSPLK
T3 sequence (P00742 41-179 partner limits assumed): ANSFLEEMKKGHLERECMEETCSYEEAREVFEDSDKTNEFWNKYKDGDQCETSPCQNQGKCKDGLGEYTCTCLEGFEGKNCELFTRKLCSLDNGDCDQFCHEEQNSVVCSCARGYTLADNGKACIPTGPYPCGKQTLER
Experimental: as §2, §3

Structure (SMILES)	APTT 1000 (Citratplasma) [s]	further results
COC(=O)c1ccc(NC(=O)c2ccc3ccccc3c2)c(NC(=O)c2ccc(C(N)=S)cc2)c1 [Beispiel 1, 4-[(Naphthalin-2-carbonyl)-amino]-3-(4-thiocarbamoyl-benzoylamino)-benzoesäuremethylester]	1	–
NC(=S)c1ccc(C(=O)Nc2cc(C(=O)O)ccc2NC(=O)c2ccc3ccccc3c2)cc1 [Beispiel 2, 4-[(Naphthalin-2-carbonyl)-amino]-3-(4-thiocarbamoyl-benzoylamino)-benzoesäure]	9.4	–
COc1ccc(C(=O)Nc2ccccc2NC(=O)c2ccc(C(N)=S)cc2)cc1 [Beispiel 3, 2-(4-Methoxy-benzoylamino)-1-(4-thiocarbamoyl-benzoylamino)-benzol]	157.9	Ki [1]: > 100 µM; TT 500 (Pferdethrombin): 2.4 s; Ki (Humanes α-Thrombin): > 100 µM; Ki (humanem Faktor Xa): 0.05 µM; APTT 1 (Citratplasma; 1 µM in final volume): 2.6 s; APTT 10 (Citratplasma; 10 µM in final volume): 8.4 s; APTT 100 (Citratplasma; 100 µM in final volume): 32.4 s
COC(=O)c1ccc(NC(=O)c2ccc(OC)cc2)c(NC(=O)c2ccc(C(N)=S)cc2)c1 [Beispiel 4, 4-(4-Methoxy-benzoylamino)-3-(4-thiocarbamoyl-benzoylamino)-benzoesäuremethylester]	65.3	–
COC(=O)c1ccc(NC(=O)c2ccc(OC)c(OC)c2)c(NC(=O)c2ccc(C(N)=S)cc2)c1 [Beispiel 5, 4-(3,4-Dimethoxy-benzoylamino)-3-(4-thiocarbamoyl-benzoylamino)-benzoesäuremethylester]	3.5	–
COC(=O)c1ccc(NC(=O)c2ccccc2C(=O)O)c(NC(=O)c2ccc(C(N)=S)cc2)c1 [Beispiel 6, 4-(2-Carboxy-benzoylamino)-3-(4-thiocarbamoyl-benzoylamino)-benzoesäuremethylester]	9.0	–
COC(=O)c1ccc(NS(=O)(=O)c2ccc(OC)cc2)c(NC(=O)c2ccc(C(N)=S)cc2)c1 [Beispiel 7, 4-(4-Methoxy-benzolsulfonylamino)-3-(4-thiocarbamoyl-benzoylamino)-benzoesäuremethylester]	0.8	–
COC(=O)c1ccc(NS(=O)(=O)c2ccc3ccccc3c2)c(NC(=O)c2ccc(C(N)=S)cc2)c1 [Beispiel 8, 4-(Naphthalin-2-sulfonylamino)-3-(4-thiocarbamoyl-benzoylamino)-benzoesäuremethylester]	-0.4	–
NC(=S)c1ccc(C(=O)Nc2ccccc2NC(=O)c2ccc(C(N)=S)cc2)cc1 [Beispiel 9, 1,2-Bis-(4-thiocarbamoyl-benzoylamino)-benzol]	6.7	–
NC(=S)c1ccc(C(=O)Nc2cc(C(=O)O)ccc2NS(=O)(=O)c2ccc3ccccc3c2)cc1 [Beispiel 10, 4-(Naphthalin-2-sulfonylamino)-3-(4-thiocarbamoyl-benzoylamino)-benzoesäure]	0.7	–
